Series [1] deals with HT-29. The series is described as follows: Antitumor activity against human HT-29 cells xenografted in BALB/c mouse assessed as inhibition of tumor growth at 30 mg/kg, ip bid and measured after 14 days by vernier caliper method. The settings on record: HT-29, 336 h, time 14 day, read-out: TGI. Type of series: functional. For orientation: Xenograft models place foreign cells or tissue in a host animal.

Series [2] is described as follows: Water solubility of compound by HPLC analysis. The class given is physicochemical.
In another series the test system is LoVo. In words: Antitumor activity against human LoVo cells assessed as inhibition of cell proliferation incubated for 72 hrs by MTT assay. Type of series: functional, cell-based. Background: Formazan colour is commonly taken as a measure of viable cells.
The subject of the next series is HCT-116. The series is described as follows: Antitumor activity against human HCT-116 cells assessed as inhibition of cell proliferation incubated for 72 hrs by MTT assay. The class given is functional, cell-based. The conditions noted are these: HCT-116, 72 h.
For series [3], the system named is HT-29. The series is described as follows: Antitumor activity against human HT-29 cells xenografted in BALB/c mouse assessed as inhibition of tumor microvessel density by measuring CD31-index at 30 mg/kg, ip bid for 14 days by immunohistochemical analysis. The settings on record: time 14 day. The class given is functional.
Series [4] has as its target T1, DNA topoisomerase 1 (Homo sapiens) (UniProt P11387).
T1 sequence (whole entry): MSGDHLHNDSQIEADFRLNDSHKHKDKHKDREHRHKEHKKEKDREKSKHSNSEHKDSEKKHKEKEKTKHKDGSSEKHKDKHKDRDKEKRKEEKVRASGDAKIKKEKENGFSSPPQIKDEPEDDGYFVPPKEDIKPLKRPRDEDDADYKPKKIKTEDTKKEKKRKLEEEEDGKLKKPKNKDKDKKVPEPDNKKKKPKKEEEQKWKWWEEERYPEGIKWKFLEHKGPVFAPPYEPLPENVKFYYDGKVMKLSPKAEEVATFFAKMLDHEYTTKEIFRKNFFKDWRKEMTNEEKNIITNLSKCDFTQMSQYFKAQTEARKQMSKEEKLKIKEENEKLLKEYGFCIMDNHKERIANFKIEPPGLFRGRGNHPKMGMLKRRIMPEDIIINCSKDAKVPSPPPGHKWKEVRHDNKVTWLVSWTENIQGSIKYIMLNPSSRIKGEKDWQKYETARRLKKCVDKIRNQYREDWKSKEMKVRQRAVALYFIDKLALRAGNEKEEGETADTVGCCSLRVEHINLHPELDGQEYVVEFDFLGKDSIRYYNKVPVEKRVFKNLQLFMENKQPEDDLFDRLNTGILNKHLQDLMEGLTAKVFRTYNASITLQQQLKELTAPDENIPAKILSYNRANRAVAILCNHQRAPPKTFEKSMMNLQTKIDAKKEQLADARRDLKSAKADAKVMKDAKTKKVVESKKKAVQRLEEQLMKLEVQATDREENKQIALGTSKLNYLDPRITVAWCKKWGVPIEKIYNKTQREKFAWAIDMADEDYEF
The series is described as follows: Inhibition of topoisomerase 1 (unknown origin) assessed as relaxation of supercoiled plasmid pBR322 DNA at 10 uM incubated for 45 mins by ethidium bromide staining based agarose gel electrophoresis.

In series [5] the test system is HT-29. In words: Antitumor activity against human HT-29 cells xenografted in BALB/c mouse assessed as reduction of tumor weight at 30 mg/kg, ip bid and measured after 14 days. The class given is functional, organism-based. The settings on record: time 14.0 day.
The target in series [6] is Prostaglandin G/H synthase 2 (Homo sapiens) (UniProt P35354). In words: Inhibition of COX-2 (unknown origin) at 30 uM.
Chain of Prostaglandin G/H synthase 2 (Homo sapiens) (P35354 whole entry, looked up): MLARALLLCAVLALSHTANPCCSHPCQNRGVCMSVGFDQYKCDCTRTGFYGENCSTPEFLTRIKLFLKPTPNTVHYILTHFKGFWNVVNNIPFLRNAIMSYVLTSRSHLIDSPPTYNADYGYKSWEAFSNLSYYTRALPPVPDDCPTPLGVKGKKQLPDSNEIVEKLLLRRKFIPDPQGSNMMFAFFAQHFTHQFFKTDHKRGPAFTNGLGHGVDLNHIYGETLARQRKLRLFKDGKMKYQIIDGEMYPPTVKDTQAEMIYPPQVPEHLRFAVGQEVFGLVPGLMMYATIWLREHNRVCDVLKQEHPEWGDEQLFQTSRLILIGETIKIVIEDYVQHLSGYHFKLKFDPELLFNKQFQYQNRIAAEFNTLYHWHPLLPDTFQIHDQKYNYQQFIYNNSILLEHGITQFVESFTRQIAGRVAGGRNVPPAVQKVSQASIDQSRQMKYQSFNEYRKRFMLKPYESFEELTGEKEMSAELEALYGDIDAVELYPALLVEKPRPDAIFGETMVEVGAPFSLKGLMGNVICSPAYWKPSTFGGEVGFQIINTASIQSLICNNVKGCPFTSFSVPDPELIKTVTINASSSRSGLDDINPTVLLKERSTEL
Series [7] deals with HT-29. The series is described as follows: Antitumor activity against human HT-29 cells assessed as inhibition of cell proliferation incubated for 72 hrs by MTT assay. Type of series: functional, cell-based. The conditions noted are these: HT-29, 72 h.
A further series relates to RKO. The series is described as follows: Antitumor activity against human RKO cells assessed as inhibition of cell proliferation incubated for 72 hrs by MTT assay. Type of series: functional, cell-based.
The next series concerns SW480. The series is described as follows: Antitumor activity against human SW480 cells assessed as inhibition of cell proliferation incubated for 72 hrs by MTT assay. The settings on record: SW480, 72 h. The class given is functional, cell-based.

One may read the solubility as the concentration that dissolves in the medium under given conditions. By pIC50 is commonly meant −log10 of the IC50, conventionally taken in molar units. The term inhibition denotes the relative decrease from the control value, in per cent.

pIC50: −log10 of the molar value. Active and inactive are the calls of the source. The calls are words filed in the database; no cut-off is given here.

For `Cc1c(Cl)cccc1Nc1ccccc1C(=O)Nc1ccc(OCCNC(=O)OC(C)(C)C)cc1`, the inhibition in vivo at 30 mg/kg with HT-29 [1] turned out to be 37.9%. Moreover, the solubility in series [2] was less than 1 µg/mL. Further, the pIC50 in the series with LoVo is 4.54; in the series with HCT-116, less than 4.52; in the series with HT-29 [7] it was 5.73; in the series on RKO it was 6.12; in the series with SW480, less than 4.52. In addition, in the series with HT-29 [3], the Inhibition_index was determined as 11.67. For the same compound, the inhibition in [4] amounted to 18.2%; in series [6], 28%. Besides, in the series with HT-29 [5], the result was Active.

The values above are taken from ChEMBL document CHEMBL5113460, “Discovery of dual inhibitors of topoisomerase I and Cyclooxygenase-2 for colon cancer therapy” (Eur J Med Chem, 2022).
